Data from US20020169111A1, “Reversal of multidrug resistance in human colon carcinoma cells” (American Cyanamid Comany, priority 1998, published 2002).

Tested on: S1-M1-3.2 cells
Conditions: for Toxicity (>20%): compound alone, concentration that causes greater than 20% cell death of S1-M1-3.2 cells; for IC50: read-out: IC50 (μM), resensitizing S1-M1-3.2 cells to mitoxantrone, with 3.2 μM mitoxantrone, 50% cancer cell death
Protocol: One of the first reported molecules with reversing activity was verapamil, a calcium channel blocker. […] Cells were plated into 96-well dishes (100 μl/well) in growth medium supplemented with 5% FBS. […] Reversal agents were tested from 0.1-80 μM (triplicate points per dose). In parallel wells, cells were grown in the presence of the reversal agent alone.
The Difference Score is the difference in the percentage of cells surviving when the drug was given alone minus the percentage of cells surviving when the drug was given along with the antitumor agent.
Cell survival was estimated using the Sulforhodamine (SRB) assay.

SMILES	Toxicity (>20%)	IC50
CC(C)C[C@@H]1c2[nH]c3ccccc3c2C[C@H]2C(=O)N3CCC[C@H]3C(=O)N12 [Example 14a, (5aS,12R,14aS)-12-isobutyl-1,2,3,5a,6,11,12,14a-octahydro-5H,14H-pyrrolo[1″,2″:4′,5′]pyrazino[2′,1′:6,1]pyrido[3,4-b]indole-5,14-dione]	80.0 µM	80 µM
CC(C)C[C@H]1c2[nH]c3ccccc3c2C[C@H]2C(=O)N3CCC[C@H]3C(=O)N21 [Example 14b, (5aS,12S,14aS)-12-isobutyl-1,2,3,5a,6,11,12,14a-octahydro-5H,14H-pyrrolo[1″,2″:4′,5′]pyrazino[2′,1′:6,1]pyrido[3,4-b]indole-5,14-dione]	35.0 µM	1 µM
CC(C)C[C@@H]1c2[nH]c3ccccc3c2C[C@@H]2C(=O)N3CCC[C@H]3C(=O)N21 [Example 15a, (5aR,12R,14aS)-12-isobutyl-1,2,3,5a,6,11,12,14a-octahydro-5H,14H-pyrrolo[1″,2″:4′,5′]pyrazino[2′,1′:6,1]pyrido[3,4-b]indole-5,14-dione]	>80.0 µM	35 µM
CC(C)C[C@H]1c2[nH]c3ccccc3c2C[C@@H]2C(=O)N3CCC[C@H]3C(=O)N21 [Example 15b, (5aR,12S,14aS)-12-isobutyl-1,2,3,5a,6,11,12,14a-octahydro-5H,14H-pyrrolo[1″,2″:4′,5′]pyrazino[2′,1′:6,1]pyrido[3,4-b]indole-5,14-dione]	>80.0 µM	15 µM
CC(C)C[C@@H]1c2[nH]c3ccccc3c2C[C@H]2C(=O)N3CCC[C@@H]3C(=O)N12 [Example 16a, (5aS,12R,14aR)-12-isobutyl-1,2,3,5a,6,11,12,14a-octahydro-5H,14H-pyrrolo[1″,2″:4′,5′]pyrazino[2′,1′:6,1]pyrido[3,4-b]indole-5,14-dione]	>80.0 µM	> 80 µM
CC(C)C[C@H]1c2[nH]c3ccccc3c2C[C@H]2C(=O)N3CCC[C@@H]3C(=O)N21 [Example 16b, (5aS,12S,14aR)-12-isobutyl-1,2,3,5a,6,11,12,14a-octahydro-5H,14H-pyrrolo[1″,2″:4′,5′]pyrazino[2′,1′:6,1]pyrido[3,4-b]indole-5,14-dione]	>80.0 µM	5.5 µM
CC(C)C[C@@H]1c2[nH]c3ccccc3c2C[C@@H]2C(=O)N3CCC[C@@H]3C(=O)N21 [Example 17a, (5aR,12R,14aR)-12-isobutyl-1,2,3,5a,6,11,12,14a-octahydro-5H,14H-pyrrolo[1″,2″:4′,5′]pyrazino[2′,1′:6,1]pyrido[3,4-b]indole-5,14-dione]	50.0 µM	35 µM
CC(C)C[C@H]1c2[nH]c3ccccc3c2C[C@@H]2C(=O)N3CCC[C@@H]3C(=O)N21 [Example 17b, (5aR,12S,14aR)-12-isobutyl-1,2,3,5a,6,11,12,14a-octahydro-5H,14H-pyrrolo[1″,2″:4′,5′]pyrazino[2′,1′:6,1]pyrido[3,4-b]indole-5,14-dione]	>80.0 µM	3.5 µM
CC(C)CC1c2[nH]c3ccccc3c2CC2C(=O)N3CCCCC3C(=O)N21 [Example 18a, (6aS,13R,15aS)-13-isobutyl-1,2,3,4,6a,7,12,13,15a-nonahydro-6H,15H-pyrido[1″,2″:4′,5′]pyrazino[2′,1′:6,1]pyrido[3,4-b]indole-6H,15H-dione]	15.0 µM	50 µM
CC(C)CC1c2[nH]c3ccccc3c2CC2C(=O)N3CCCCC3C(=O)N21 [Example 18b, (6aS,13S,15aS)-13-isobutyl-1,2,3,4,6a,7,12,13,15a-nonahydro-6H,15H-pyrido[1″,2″:4′,5′]pyrazino[2′,1′:6,1]pyrido[3,4-b]indole-6H,15H-dione]	25.0 µM	1.5 µM
CC(C)CC1c2[nH]c3ccccc3c2CC2C(=O)N3CCCCC3C(=O)N21 [Example 19a, (6aR,13R,15aS)-13-isobutyl-1,2,3,4,6a,7,12,13,15a-nonahydro-6H,15H-pyrido[1″,2″:4′,5′]pyrazino[2′,1′:6,1]pyrido[3,4-b]indole-6H,15H-dione]	50.0 µM	11 µM
CC(C)CC1c2[nH]c3ccccc3c2CC2C(=O)N3CCCCC3C(=O)N21 [Example 19b, (6aR,13S,15aS-13-isobutyl-1,2,3,4,6a,7,12,13,15a-nonahydro-6H,15H-pyrido[1″,2″:4′,5′]pyrazino[2′,1′:6,1]pyrido[3,4-b]indole-6H,15H-dione]	>80.0 µM	4 µM
CC(C)CC1c2[nH]c3ccccc3c2CC2C(=O)N3CCCCC3C(=O)N21 [Example 20a, (6aS,13R,15aR)-13-isobutyl-1,2,3,4,6a,7,12,13,15a-nonahydro-6H,15H-pyrido[1″,2″:4′,5′]pyrazino[2′,1′:6,1]pyrido[3,4-b]indole-6H,15H-dione]	80.0 µM	30 µM
CC(C)CC1c2[nH]c3ccccc3c2CC2C(=O)N3CCCCC3C(=O)N21 [Example 20b, (6aS,13S,15aR)-13-isobutyl-1,2,3,4,6a,7,12,13,15a-nonahydro-6H,15H-pyrido[1″,2″:4′,5′]pyrazino[2′,1′:6,1]pyrido[3,4-b]indole-6H,15H-dione]	50.0 µM	2 µM
CC(C)CC1c2[nH]c3ccccc3c2CC2C(=O)N3CCCCC3C(=O)N21 [Example 21a, (6aR,13R,15aR)-13-isobutyl-1,2,3,4,6a,7,12,13,15a-nonahydro-6H,15H-pyrido[1″,2″:4′,5′]pyrazino[2′,1′:6,1]pyrido[3,4-b]indole-6H,15H-dione]	10.0 µM	10.5 µM
CC(C)CC1c2[nH]c3ccccc3c2CC2C(=O)N3CCCCC3C(=O)N21 [Example 21b, (6aR,13S,15aR)-13-isobutyl-1,2,3,4,6a,7,12,13,15a-nonahydro-6H,15H-pyrido[1″,2″:4′,5′]pyrazino[2′,1′:6,1]pyrido[3,4-b]indole-6H,15H-dione]	>80.0 µM	6 µM
CC(C)C[C@@H]1c2[nH]c3ccccc3c2C[C@H]2C(=O)N3CC[C@H]3C(=O)N12 [Example 22a, (4aS,11R,13aS)-11-isobutyl-1,4a,5,10,11,13a-hexahydro-4H-azeto[1″,2″:4′,5′]pyrazino[2′,1′:6,1]pyrido[3,4-b]indole-4,13(2H)-dione]	80.0 µM	15 µM
CC(C)C[C@H]1c2[nH]c3ccccc3c2C[C@H]2C(=O)N3CC[C@H]3C(=O)N21 [Example 22b, (4aS,11S,13aS)-11-isobutyl-1,4a,5,10,11,13a-hexahydro-4H-azeto[1″,2″:4′,5′]pyrazino[2′,1′:6,1]pyrido[3,4-b]indole-4,13(2H)-dione]	>80.0 µM	2.5 µM
O=C1[C@@H]2Cc3c([nH]c4ccccc34)[C@@H](CCCCCc3ccccc3)N2C(=O)[C@@H]2CCCN12 [Example 23a, (5aS,12R,14aS)-12-(5-phenylpentyl)-1,2,3,5a,6,11,12,14a-octahydro-5H,14H-pyrrolo[1″,2″:4′,5′]pyrazino[2′,1′:6,1]pyrido[3,4-b]indole-5,14-dione]	7.5 µM	0.3 µM
O=C1[C@@H]2Cc3c([nH]c4ccccc34)[C@H](CCCCCc3ccccc3)N2C(=O)[C@@H]2CCCN12 [Example 23b, (5aS,12S,14aS)-12-(5-phenylpentyl)-1,2,3,5a,6,11,12,14a-octahydro-5H,14H-pyrrolo[1″,2″:4′,5′]pyrazino[2′,1′:6,1]pyrido[3,4-b]indole-5,14-dione]	>80 µM	3 µM
O=C(NCCC[C@@H]1c2[nH]c3ccccc3c2C[C@H]2C(=O)N3CCC[C@H]3C(=O)N12)OCc1ccccc1 [Example 24a, Benzyl 3-[(5aS,12R,14aS)-5,14-dioxo-2,3,5a,6,11,12,14,14a-octahydro-1H,5H-pyrrolo[1″,2″:4′,5′]pyrazino[2′,1′:6,1]pyrido[3,4-b]indol-12-yl]propylcarbamate]	50 µM	10 µM
O=C(NCCC[C@H]1c2[nH]c3ccccc3c2C[C@H]2C(=O)N3CCC[C@H]3C(=O)N21)OCc1ccccc1 [Example 24b, Benzyl 3-[(5aS,12S,14aS)-5,14-dioxo-2,3,5a,6,11,12,14,14a-octahydro-1H,5H-pyrrolo[1″,2″:4′,5′]pyrazino[2′,1′:6,1]pyrido[3,4-b]indol-12-yl]propylcarbamate]	20 µM	2 µM
O=C1[C@@H]2Cc3c([nH]c4ccccc34)CN2C(=O)[C@@H]2CCCN12 [Example 25, (5aS,14aS)-1,2,3,5a,6,11,12,14a-octahydro-5H,14H-pyrrolo[1″,2″:4′,5′]pyrazino[2′,1′:6,1]pyrido[3,4-b]indole-5,14-dione]	>80 µM	15 µM
C[C@H]1c2[nH]c3ccccc3c2C[C@H]2C(=O)N3CCC[C@H]3C(=O)N21 [Example 26, (5aS,12S,14aS)-12-methyl-1,2,3,5a,6,11,12,14a-octahydro-5H,14H-pyrrolo[1″,2″:4′,5′]pyrazino[2′,1′:6,1]pyrido[3,4-b]indole-5,14-dione]	>80.0 µM	7 µM
CC(C)=C[C@H]1c2[nH]c3ccccc3c2C[C@H]2C(=O)N3CCC[C@H]3C(=O)N21 [Example 27]	>80 µM	2.5 µM
CCCCCCCCC[C@H]1c2[nH]c3ccccc3c2C[C@H]2C(=O)N3CCC[C@H]3C(=O)N21 [Example 28, (5aS,12S,14aS)-12-nonyl-1,2,3,5a,6,11,12,14a-octahydro-5H,14H-pyrrolo[1″,2″:4′,5′]pyrazino[2′,1′:6,1]pyrido[3,4-b]Indole-5,14-dione]	7.0 µM	0.25 µM
